Results reported in the supplement of paper PMC11061612.

Columns and labels:
[1] = compound: NC1(c2ccc(-c3nc4ccn5c(=O)[nH]nc5c4cc3-c3ccccc3)cc2)CCC1 [MK-2206]; conditions: max 10 µM
Method in brief: (§1)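 After 24 hours at 37°C and 5% CO2 in 1536-well plates holding 7.5 μl of DMEM/F12 or RPMI with 10% FBS, cancer cell lines were dosed for 72 hours, with final DMSO typically 0.2%. Viability came from CellTiter-Glo 2.0 luminescence, scaled between the means of blank wells and DMSO wells. A non-linear mixed effects model fitted a two-parameter logistic curve to each dose response to give the single-agent IC50.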

[2] = compound: Cn1cnc2c(F)c(Nc3ccc(Br)cc3Cl)c(C(=O)NOCCO)cc21 [Selumetinib]; conditions: max 10 µM
Method in brief: as §1

[3] = compound: C1CN(CCC1(C(=O)N[C@@H](CCO)C2=CC=C(C=C2)Cl)N)C3=NC=NC4=C3C=CN4 [AZD5363]; conditions: max 10 µM
Method in brief: as §1

[4] = compound: COc1cc(Nc2ncc3c(n2)-c2ccc(Cl)cc2C(c2c(F)cccc2OC)=NC3)ccc1C(=O)O [Alisertib]; conditions: max 10 µM
Method in brief: as §1

[5] = compound: C[C@@H]1COCCN1C2=NC(=NC(=C2)C3(CC3)[S@](=N)(=O)C)C4=C5C=CNC5=NC=C4 [AZD6738]; conditions: max 10 µM
Method in brief: as §1

[6] = compound: O=C(Nc1ccc2[nH]nc(-c3ccncc3)c2c1)[C@@H]1CCN(CC(=O)N2CCN(c3ccc(-c4ncccn4)cc3)CC2)C1; conditions: max 5 µM
Method in brief: as §1

[7] = compound: CC1=CN2[C@@H](C1)C=NC3=CC(=C(C=C3C2=O)OC)OCCCCCOC4=C(C=C5C(=C4)N=C[C@@H]6CC(=CN6C5=O)C)OC [SG3199]; conditions: max 0.001 µM
Method in brief: as §1

[8] = compound: CN(CC[C@H](CSC1=CC=CC=C1)NC2=C(C=C(C=C2)S(=O)(=O)NC(=O)C3=CC=C(C=C3)N4CCC(CC4)[C@H](C5=CC=CC=C5C6=CC=C(C=C6)Cl)O)S(=O)(=O)C(F)(F)F)CCO [AZD4320]; conditions: max 1 µM
Method in brief: as §1

[9] = compound: CS(=O)(=O)CCNCc1ccc(-c2ccc3ncnc(Nc4ccc(OCc5cccc(F)c5)c(Cl)c4)c3c2)o1 [Lapatinib]; conditions: max 10 µM
Method in brief: as §1

[10] = compound: O=C(c1cc(Cc2n[nH]c(=O)c3ccccc23)ccc1F)N1CCN(C(=O)C2CC2)CC1 [Olaparib]; conditions: max 10 µM
Method in brief: as §1

[11] = compound: O=c1[nH]cc(F)c(=O)[nH]1 [5-Fluorouracil]; conditions: max 20 µM
Method in brief: as §1

[12] = compound: C1CC(C1)(C(=O)[O-])C(=O)[O-].N.N.[Pt+2] [Carboplatin]; conditions: max 10 µM
Method in brief: as §1

[13] = compound: CC(=O)O[C@H]1C(=O)[C@@]2(C)[C@H]([C@H](OC(=O)c3ccccc3)[C@]3(O)C[C@H](OC(=O)[C@H](O)[C@@H](NC(=O)c4ccccc4)c4ccccc4)C(C)=C1C3(C)C)[C@]1(OC(C)=O)CO[C@@H]1C[C@@H]2O [Paclitaxel]; conditions: max 3 µM
Method in brief: as §1

[14] = compound: C=CCn1c(=O)c2cnc(Nc3ccc(N4CCN(C)CC4)cc3)nc2n1-c1cccc(C(C)(C)O)n1 [AZD1775]
Method in brief: as §1

[15] = compound: Nc1ccn([C@@H]2O[C@H](CO)[C@@H](O)C2(F)F)c(=O)n1 [Gemcitabine]; conditions: max 0.3 µM
Method in brief: as §1

[16] = compound: Cc1nc(-c2cn3c(n2)-c2ccc(-c4cnn(C(C)(C)C(N)=O)c4)cc2OCC3)n(C(C)C)n1 [Taselisib]; conditions: max 10 µM
Method in brief: as §1

[17] = compound: CC1(C)CCC(CN2CCN(c3ccc(C(=O)NS(=O)(=O)c4ccc(NCC5CCOCC5)c([N+](=O)[O-])c4)c(Oc4cnc5[nH]ccc5c4)c3)CC2)=C(c2ccc(Cl)cc2)C1 [Venetoclax]; conditions: max 1 µM
Method in brief: as §1

[18] = compound: COc1cc2ncnc(Nc3ccc(F)c(Cl)c3)c2cc1OCCCN1CCOCC1 [Gefitinib]; conditions: max 10 µM
Method in brief: as §1

[19] = compound: Cc1cc2ncnn2cc1Nc1ncc2c(n1)n(C1CCOCC1)c(=O)n2C [AZD7648]; conditions: max 10 µM
Method in brief: as §1

[20] = compound: CC(=O)c1c(C)c2cnc(Nc3ccc(N4CCNCC4)cn3)nc2n(C2CCCC2)c1=O [Palbociclib]; conditions: max 10 µM
Method in brief: as §1

[21] = compound: C[C@@H](Oc1cc(-c2cnn(C3CCNCC3)c2)cnc1N)c1c(Cl)ccc(F)c1Cl [Crizotinib]; conditions: max 10 µM
Method in brief: as §1

[22] = compound: CC(C)n1c(=O)n(C)c2cnc3cc(F)c(-c4ccc(OCCCN5CCCCC5)nc4)cc3c21 [AZD1390]; conditions: max 0.3 µM
Method in brief: as §1

[23] = compound: C[C@@H](c1ccc2nccn2c1)n1nnc2ncc(-c3cnn(C)c3)nc21 [Savolitinib]; conditions: max 1 µM
Method in brief: as §1

[24] = compound: C[C@@H](Nc1cc(F)cc(F)c1)c1cc(C(=O)N(C)C)cc2c(=O)cc(N3CCOCC3)oc12 [AZD8186]; conditions: max 10 µM
Method in brief: as §1

[25] = compound: COc1nnc2ccc(N3CCC(c4ccc(OCCN5CCN(C)C(=O)[C@H]5C)cc4)CC3)nn12 [AZD5153]; conditions: max 1 µM
Method in brief: as §1

[26] = compound: COc1cc([C@@H]2c3cc4c(cc3[C@@H](O[C@@H]3O[C@@H]5CO[C@@H](C)O[C@H]5[C@H](O)[C@H]3O)[C@H]3COC(=O)[C@H]23)OCO4)cc(OC)c1O [Etoposide]; conditions: max 10 µM
Method in brief: as §1

[27] = compound: N#Cc1cnc(Nc2cc(NC[C@H]3CNCCO3)c(C(F)(F)F)cn2)cn1 [SRA737]; conditions: max 10 µM
Method in brief: as §1

[28] = compound: COc1cccc(OCCCN)c1-c1cc(Nc2cnc(C#N)cn2)n[nH]1 [Prexasertib]; conditions: max 1 µM
Method in brief: as §1

[29] = compound: CCc1c2c(nc3ccc(O)cc13)-c1cc3c(c(=O)n1C2)COC(=O)[C@]3(O)CC [SN-38]; conditions: max 0.3 µM
Method in brief: as §1

[30] = compound: Cc1c2c(nn1C)CSCc1cc(n(C)n1)CSc1cc(c3ccccc3c1)OCCCc1c(C(=O)O)n(C)c3c-2c(Cl)ccc13 [AZD5991]; conditions: max 1 µM
Method in brief: as §1

[31] = compound: COc1cccc2c1C(=O)c1c(O)c3c(c(O)c1C2=O)C[C@@](O)(C(=O)CO)C[C@@H]3O[C@H]1C[C@H](N)[C@H](O)[C@H](C)O1 [Doxorubicin]; conditions: max 1 µM
Method in brief: as §1

[32] = compound: CN(C)CCCOc1ccc(-c2ccc3ncc4c(c3c2)n(C2CCOCC2)c(=O)n4C)cn1 [AZD0156]
Method in brief: as §1

[33] = compound: CCN(CCO)CCCOc1ccc2c(Nc3cc(CC(=O)Nc4cccc(F)c4)[nH]n3)ncnc2c1 [AZD2811]; conditions: max 1 µM
Method in brief: as §1

[34] = compound: CC1=C(C(=CC=C1)Cl)NC(=O)C2=CN=C(S2)NC3=CC(=NC(=N3)C)N4CCN(CC4)CCO [Dasatinib]; conditions: max 2 µM
Method in brief: as §1

[35] = compound: CC(=O)Nc1cccc(-n2c(=O)n(C3CC3)c(=O)c3c(Nc4ccc(I)cc4F)n(C)c(=O)c(C)c32)c1 [Trametinib]; conditions: max 1 µM
Method in brief: as §1

| Cell Line | IC50, cell viability 72 h [1] | IC50, cell viability 72 h [2] | IC50, cell viability 72 h [3] | IC50, cell viability 72 h [4] | IC50, cell viability 72 h [5] | IC50, cell viability 72 h [6] | IC50, cell viability 72 h [7] | IC50, cell viability 72 h [8] | IC50, cell viability 72 h [9] | IC50, cell viability 72 h [10] | IC50, cell viability 72 h [11] | IC50, cell viability 72 h [12] | IC50, cell viability 72 h [13] | IC50, cell viability 72 h ([14]; max 3 µM) | IC50, cell viability 72 h [15] | IC50, cell viability 72 h [16] | IC50, cell viability 72 h [17] | IC50, cell viability 72 h [18] | IC50, cell viability 72 h [19] | IC50, cell viability 72 h [20] | IC50, cell viability 72 h [21] | IC50, cell viability 72 h [22] | IC50, cell viability 72 h [23] | IC50, cell viability 72 h [24] | IC50, cell viability 72 h [25] | IC50, cell viability 72 h [26] | IC50, cell viability 72 h [27] | IC50, cell viability 72 h [28] | IC50, cell viability 72 h [29] | IC50, cell viability 72 h [30] | IC50, cell viability 72 h [31] | IC50, cell viability 72 h ([32]; max 3 µM) | IC50, cell viability 72 h [33] | IC50, cell viability 72 h [34] | IC50, cell viability 72 h [35] | IC50, cell viability 72 h ([14]; max 1 µM) | IC50, cell viability 72 h ([32]; max 1 µM) |
| --- | --- | --- | --- | --- | --- | --- | --- | --- | --- | --- | --- | --- | --- | --- | --- | --- | --- | --- | --- | --- | --- | --- | --- | --- | --- | --- | --- | --- | --- | --- | --- | --- | --- | --- | --- | --- | --- |
| OVCAR-5 (Ovarian Carcinoma) | > 10 µM | 2.15 µM | > 10 µM | > 10 µM | 5.14 µM | 1.66 µM | > 0.001 µM | > 1 µM | > 10 µM | > 10 µM | > 20 µM | > 10 µM | 0.12 µM | > 3 µM | > 0.3 µM | 2.07 µM | > 1 µM | > 10 µM | > 10 µM | > 10 µM | > 10 µM | > 0.3 µM | > 1 µM | > 10 µM | 0.677 µM | > 10 µM | > 10 µM | 0.0405 µM | > 0.3 µM | > 1 µM | > 1 µM | > 3 µM | > 1 µM | 0.381 µM | 0.0896 µM |  |  |
| SAS (Oral Cavity Carcinoma) | > 10 µM | 6.14 µM | > 10 µM | > 10 µM | 4.42 µM | 0.479 µM | > 0.001 µM | > 1 µM | > 10 µM | > 10 µM | > 20 µM | > 10 µM | 0.0777 µM | 0.511 µM | 0.013 µM | 5.19 µM | > 1 µM | 9.89 µM | > 10 µM | 5.61 µM | > 10 µM | > 0.3 µM | > 1 µM | > 10 µM | 0.115 µM | 1.13 µM | > 10 µM | 0.059 µM | 0.00292 µM | > 1 µM | 0.226 µM | > 3 µM | > 1 µM | > 2 µM | 0.191 µM |  |  |
| SNU-16 (Gastric Carcinoma) | > 10 µM | > 10 µM | > 10 µM | 0.106 µM | 0.754 µM | > 5 µM | > 0.001 µM | > 1 µM | > 10 µM | > 10 µM | > 20 µM | > 10 µM | < 0.003 µM |  | 0.00696 µM | > 10 µM | > 1 µM | 9.59 µM | > 10 µM | 6.23 µM | 2.8 µM | > 0.3 µM | > 1 µM | > 10 µM | 0.241 µM | 5.56 µM | 1.2 µM | 0.0101 µM | 0.0229 µM | 0.17 µM | 0.301 µM |  | 0.479 µM | > 2 µM | > 1 µM | 0.522 µM | > 1 µM |
| SNU-449 (Hepatocellular Carcinoma) | > 10 µM | > 10 µM | > 10 µM | > 10 µM | > 10 µM | > 5 µM | > 0.001 µM | > 1 µM | > 10 µM | > 10 µM | > 20 µM | > 10 µM | > 3 µM | > 3 µM | > 0.3 µM | > 10 µM | > 1 µM | > 10 µM | > 10 µM | > 10 µM | > 10 µM | > 0.3 µM | > 1 µM | > 10 µM | > 1 µM | > 10 µM | > 10 µM | > 1 µM | > 0.3 µM | > 1 µM | > 1 µM | > 3 µM | > 1 µM | 1.26 µM | > 1 µM |  |  |
